Assay results from article PMC12136037, “Type II kinase inhibitors that target Parkinson’s disease–associated LRRK2” (Science Advances, 2025).
Values joined by “and” are separate entries in the source; they are usually repeats but may differ in a detail not shown here. Equal values may be shown once.

Tests used:
[1] = molecular target: T1, ~100 representative kinases (Homo sapiens, UniProt Q9H4A3); assay: DSF 100 kinase selectivity screen; assay type: binding; details: Protein WNK1; DSF; average of three replicates;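 further: compound tested at 20 µM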
T1 construct: Recombinant protein kinase domains with a concentration of 2 μM
In short: (§1)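 Each kinase domain, at 2 μM, is mixed with 20 μM test compound and SYPRO Orange in Hepes (20 mM, pH 7.5) with 500 mM NaCl. Temperature is then raised at 3°C/min and fluorescence-monitored unfolding yields the melting temperature change, ΔTm in degrees Celsius.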

[2] = molecular target: T2, ~100 representative kinases (Homo sapiens, UniProt Q2M2I8); assay: DSF 100 kinase selectivity screen; assay type: binding; details: Protein AAK1; average of three replicates;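 further: compound tested at 20 µM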
T2 construct: Recombinant protein kinase domains with a concentration of 2 μM
T2 sequence (Q2M2I8 whole entry, the tested form may be a part): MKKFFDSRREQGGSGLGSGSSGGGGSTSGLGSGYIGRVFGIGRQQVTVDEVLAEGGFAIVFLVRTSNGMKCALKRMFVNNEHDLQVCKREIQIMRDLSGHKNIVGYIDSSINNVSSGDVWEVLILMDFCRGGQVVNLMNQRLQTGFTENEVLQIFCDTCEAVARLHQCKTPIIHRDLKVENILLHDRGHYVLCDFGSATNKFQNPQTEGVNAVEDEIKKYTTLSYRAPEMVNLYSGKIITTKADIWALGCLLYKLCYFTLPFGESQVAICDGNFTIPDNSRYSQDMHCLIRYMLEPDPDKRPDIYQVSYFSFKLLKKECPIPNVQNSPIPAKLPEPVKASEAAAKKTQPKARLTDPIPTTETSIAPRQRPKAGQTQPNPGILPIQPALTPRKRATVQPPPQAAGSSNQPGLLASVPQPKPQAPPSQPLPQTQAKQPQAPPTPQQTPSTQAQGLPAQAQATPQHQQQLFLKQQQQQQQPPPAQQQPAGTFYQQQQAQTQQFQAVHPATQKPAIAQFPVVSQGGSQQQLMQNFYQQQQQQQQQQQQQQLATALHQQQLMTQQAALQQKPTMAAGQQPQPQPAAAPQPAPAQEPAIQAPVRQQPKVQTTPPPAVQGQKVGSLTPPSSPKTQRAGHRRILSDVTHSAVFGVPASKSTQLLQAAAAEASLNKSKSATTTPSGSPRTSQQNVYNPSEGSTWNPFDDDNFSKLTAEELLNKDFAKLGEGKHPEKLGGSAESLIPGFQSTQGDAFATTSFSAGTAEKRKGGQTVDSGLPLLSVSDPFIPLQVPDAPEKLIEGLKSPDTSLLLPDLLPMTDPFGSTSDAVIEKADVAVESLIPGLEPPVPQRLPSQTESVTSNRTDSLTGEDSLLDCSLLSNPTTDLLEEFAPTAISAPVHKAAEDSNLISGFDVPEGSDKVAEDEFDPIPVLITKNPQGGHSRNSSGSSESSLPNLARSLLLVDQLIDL
In short: as §1

[3] = molecular target: T3, ~100 representative kinases (Homo sapiens, UniProt P27448); assay: DSF 100 kinase selectivity screen; assay type: binding; details: protein MARK3; average of three replicates;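 further: compound tested at 20 µM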
T3 construct: Recombinant protein kinase domains with a concentration of 2 μM
T3 sequence (P27448 whole entry, the tested form may be a part): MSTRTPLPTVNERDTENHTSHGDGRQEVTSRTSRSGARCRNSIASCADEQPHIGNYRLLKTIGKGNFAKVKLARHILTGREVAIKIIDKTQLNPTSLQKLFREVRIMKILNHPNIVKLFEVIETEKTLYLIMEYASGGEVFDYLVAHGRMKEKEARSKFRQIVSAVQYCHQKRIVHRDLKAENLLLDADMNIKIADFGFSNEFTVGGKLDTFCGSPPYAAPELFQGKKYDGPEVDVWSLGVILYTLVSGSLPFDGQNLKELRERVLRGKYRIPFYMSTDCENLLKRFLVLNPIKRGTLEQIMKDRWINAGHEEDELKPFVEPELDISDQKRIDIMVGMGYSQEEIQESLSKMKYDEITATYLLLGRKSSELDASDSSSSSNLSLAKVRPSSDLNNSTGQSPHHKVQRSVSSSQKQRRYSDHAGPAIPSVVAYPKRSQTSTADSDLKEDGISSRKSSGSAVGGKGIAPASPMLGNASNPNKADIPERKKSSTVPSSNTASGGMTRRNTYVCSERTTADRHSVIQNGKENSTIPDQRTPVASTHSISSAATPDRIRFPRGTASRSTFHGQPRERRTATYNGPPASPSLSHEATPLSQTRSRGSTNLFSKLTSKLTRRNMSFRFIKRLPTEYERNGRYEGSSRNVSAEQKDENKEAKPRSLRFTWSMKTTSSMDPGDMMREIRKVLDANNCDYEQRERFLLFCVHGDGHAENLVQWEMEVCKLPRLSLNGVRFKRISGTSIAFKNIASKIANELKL
In short: as §1

[4] = molecular target: T4, ~100 representative kinases (Homo sapiens, UniProt O96013); assay: DSF 100 kinase selectivity screen; assay type: binding; details: protein PAK4; average of three replicates;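 further: compound tested at 20 µM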
T4 construct: Recombinant protein kinase domains with a concentration of 2 μM
T4 sequence (O96013 whole entry, the tested form may be a part): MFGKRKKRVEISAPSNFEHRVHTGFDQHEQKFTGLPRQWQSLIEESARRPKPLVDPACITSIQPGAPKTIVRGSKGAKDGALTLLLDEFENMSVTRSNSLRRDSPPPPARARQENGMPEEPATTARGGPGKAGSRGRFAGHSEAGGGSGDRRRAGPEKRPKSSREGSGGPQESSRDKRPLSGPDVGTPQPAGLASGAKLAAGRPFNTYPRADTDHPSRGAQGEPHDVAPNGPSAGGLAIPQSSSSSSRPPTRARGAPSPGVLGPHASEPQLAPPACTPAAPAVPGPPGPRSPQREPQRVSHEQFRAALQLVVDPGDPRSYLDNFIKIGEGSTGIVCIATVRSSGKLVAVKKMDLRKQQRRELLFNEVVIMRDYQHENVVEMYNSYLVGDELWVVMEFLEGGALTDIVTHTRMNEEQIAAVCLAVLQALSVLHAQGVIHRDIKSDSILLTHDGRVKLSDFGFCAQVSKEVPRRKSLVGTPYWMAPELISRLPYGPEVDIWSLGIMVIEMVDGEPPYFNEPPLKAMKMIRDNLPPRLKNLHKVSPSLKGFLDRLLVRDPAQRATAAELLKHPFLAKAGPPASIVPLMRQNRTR
In short: as §1

[5] = molecular target: T5, ~100 representative kinases (Homo sapiens, UniProt Q5VT25); assay: DSF 100 kinase selectivity screen; assay type: binding; details: Protein CDC42BPA; average of three replicates;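 further: compound tested at 20 µM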
T5 construct: Recombinant protein kinase domains with a concentration of 2 μM
T5 sequence (Q5VT25 whole entry, the tested form may be a part): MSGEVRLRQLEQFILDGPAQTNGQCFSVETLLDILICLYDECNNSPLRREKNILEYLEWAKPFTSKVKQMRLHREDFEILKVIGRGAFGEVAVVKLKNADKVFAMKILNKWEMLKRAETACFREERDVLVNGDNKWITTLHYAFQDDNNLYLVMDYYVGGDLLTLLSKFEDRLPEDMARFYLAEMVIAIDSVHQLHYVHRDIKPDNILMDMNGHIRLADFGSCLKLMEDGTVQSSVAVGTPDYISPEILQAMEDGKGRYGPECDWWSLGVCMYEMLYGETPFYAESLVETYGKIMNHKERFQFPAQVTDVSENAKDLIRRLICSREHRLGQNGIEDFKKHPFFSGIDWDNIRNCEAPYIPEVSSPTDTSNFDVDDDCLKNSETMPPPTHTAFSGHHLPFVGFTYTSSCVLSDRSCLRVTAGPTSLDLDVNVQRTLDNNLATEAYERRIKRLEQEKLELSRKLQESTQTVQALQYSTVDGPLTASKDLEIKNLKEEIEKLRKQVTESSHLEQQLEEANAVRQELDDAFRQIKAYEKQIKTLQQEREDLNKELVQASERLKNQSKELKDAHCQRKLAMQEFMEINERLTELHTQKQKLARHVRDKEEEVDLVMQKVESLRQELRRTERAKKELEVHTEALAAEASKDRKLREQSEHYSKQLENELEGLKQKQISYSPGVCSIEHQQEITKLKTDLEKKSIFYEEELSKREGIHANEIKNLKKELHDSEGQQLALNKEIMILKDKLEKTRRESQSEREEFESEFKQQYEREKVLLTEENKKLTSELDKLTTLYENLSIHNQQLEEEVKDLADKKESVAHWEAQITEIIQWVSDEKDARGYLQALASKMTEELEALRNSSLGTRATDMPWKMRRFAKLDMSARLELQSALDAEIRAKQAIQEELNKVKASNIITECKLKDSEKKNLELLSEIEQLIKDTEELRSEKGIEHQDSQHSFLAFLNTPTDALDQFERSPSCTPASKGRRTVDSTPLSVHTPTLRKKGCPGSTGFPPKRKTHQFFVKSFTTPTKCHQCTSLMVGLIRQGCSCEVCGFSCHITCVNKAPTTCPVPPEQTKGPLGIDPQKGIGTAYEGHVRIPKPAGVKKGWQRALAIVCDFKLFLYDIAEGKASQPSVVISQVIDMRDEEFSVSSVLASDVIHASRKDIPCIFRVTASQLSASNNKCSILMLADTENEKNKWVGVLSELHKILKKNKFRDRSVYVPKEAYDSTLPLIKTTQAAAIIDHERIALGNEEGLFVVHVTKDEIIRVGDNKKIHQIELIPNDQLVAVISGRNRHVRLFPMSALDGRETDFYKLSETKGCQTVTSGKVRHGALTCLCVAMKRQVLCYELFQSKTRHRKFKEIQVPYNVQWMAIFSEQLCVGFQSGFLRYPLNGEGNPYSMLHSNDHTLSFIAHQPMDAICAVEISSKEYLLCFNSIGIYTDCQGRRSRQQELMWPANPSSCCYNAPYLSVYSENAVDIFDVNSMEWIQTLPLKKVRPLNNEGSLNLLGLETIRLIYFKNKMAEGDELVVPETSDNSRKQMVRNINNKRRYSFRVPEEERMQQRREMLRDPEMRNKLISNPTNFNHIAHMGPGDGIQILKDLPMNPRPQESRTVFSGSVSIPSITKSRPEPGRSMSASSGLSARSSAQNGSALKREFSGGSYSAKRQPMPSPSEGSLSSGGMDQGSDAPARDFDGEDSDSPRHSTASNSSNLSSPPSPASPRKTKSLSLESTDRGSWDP
In short: as §1

[6] = molecular target: T6, ~100 representative kinases (Homo sapiens, UniProt P12931); assay: DSF 100 kinase selectivity screen; assay type: binding; details: Protein SRC; DSF; average of three replicates;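 further: compound tested at 20 µM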
T6 construct: Recombinant protein kinase domains with a concentration of 2 μM
T6 sequence (P12931 whole entry, the tested form may be a part): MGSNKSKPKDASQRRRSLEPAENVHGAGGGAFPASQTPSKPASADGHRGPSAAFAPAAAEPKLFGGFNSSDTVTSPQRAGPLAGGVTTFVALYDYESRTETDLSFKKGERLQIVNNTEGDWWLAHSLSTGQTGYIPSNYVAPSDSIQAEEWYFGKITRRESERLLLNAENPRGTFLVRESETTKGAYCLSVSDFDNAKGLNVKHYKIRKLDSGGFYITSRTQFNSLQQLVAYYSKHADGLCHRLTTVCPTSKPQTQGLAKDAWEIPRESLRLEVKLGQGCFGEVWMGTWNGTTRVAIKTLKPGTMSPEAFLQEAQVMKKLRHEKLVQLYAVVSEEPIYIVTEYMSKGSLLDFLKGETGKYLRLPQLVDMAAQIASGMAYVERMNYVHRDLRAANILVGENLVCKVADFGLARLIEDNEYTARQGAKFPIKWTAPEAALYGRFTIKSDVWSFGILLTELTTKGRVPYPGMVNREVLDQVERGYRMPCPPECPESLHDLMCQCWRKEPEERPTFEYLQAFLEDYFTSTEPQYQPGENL
In short: as §1

LRRK2^RCKW = molecular target: T7, LRRK2^RCKW (Homo sapiens, UniProt Q5S007); assay: Biochemical LRRK2 activity assay (PhosphoSense, AssayQuant SOX peptide AQT0615); details: for IC50: LRRK2^RCKW kinase activity, in vitro; for normalized response (LRRK2 activity): normalized to 0% (no kinase) and 100% (no inhibitor) control, two singlicate columns per compound
T7 construct: LRRK2 R1327 to E2527; His6-Z-tag (TEV cleavable) (N, cleaved yes); host or cells: Sf9 insect cells (baculovirus)
T7 sequence (Q5S007 1327-2527): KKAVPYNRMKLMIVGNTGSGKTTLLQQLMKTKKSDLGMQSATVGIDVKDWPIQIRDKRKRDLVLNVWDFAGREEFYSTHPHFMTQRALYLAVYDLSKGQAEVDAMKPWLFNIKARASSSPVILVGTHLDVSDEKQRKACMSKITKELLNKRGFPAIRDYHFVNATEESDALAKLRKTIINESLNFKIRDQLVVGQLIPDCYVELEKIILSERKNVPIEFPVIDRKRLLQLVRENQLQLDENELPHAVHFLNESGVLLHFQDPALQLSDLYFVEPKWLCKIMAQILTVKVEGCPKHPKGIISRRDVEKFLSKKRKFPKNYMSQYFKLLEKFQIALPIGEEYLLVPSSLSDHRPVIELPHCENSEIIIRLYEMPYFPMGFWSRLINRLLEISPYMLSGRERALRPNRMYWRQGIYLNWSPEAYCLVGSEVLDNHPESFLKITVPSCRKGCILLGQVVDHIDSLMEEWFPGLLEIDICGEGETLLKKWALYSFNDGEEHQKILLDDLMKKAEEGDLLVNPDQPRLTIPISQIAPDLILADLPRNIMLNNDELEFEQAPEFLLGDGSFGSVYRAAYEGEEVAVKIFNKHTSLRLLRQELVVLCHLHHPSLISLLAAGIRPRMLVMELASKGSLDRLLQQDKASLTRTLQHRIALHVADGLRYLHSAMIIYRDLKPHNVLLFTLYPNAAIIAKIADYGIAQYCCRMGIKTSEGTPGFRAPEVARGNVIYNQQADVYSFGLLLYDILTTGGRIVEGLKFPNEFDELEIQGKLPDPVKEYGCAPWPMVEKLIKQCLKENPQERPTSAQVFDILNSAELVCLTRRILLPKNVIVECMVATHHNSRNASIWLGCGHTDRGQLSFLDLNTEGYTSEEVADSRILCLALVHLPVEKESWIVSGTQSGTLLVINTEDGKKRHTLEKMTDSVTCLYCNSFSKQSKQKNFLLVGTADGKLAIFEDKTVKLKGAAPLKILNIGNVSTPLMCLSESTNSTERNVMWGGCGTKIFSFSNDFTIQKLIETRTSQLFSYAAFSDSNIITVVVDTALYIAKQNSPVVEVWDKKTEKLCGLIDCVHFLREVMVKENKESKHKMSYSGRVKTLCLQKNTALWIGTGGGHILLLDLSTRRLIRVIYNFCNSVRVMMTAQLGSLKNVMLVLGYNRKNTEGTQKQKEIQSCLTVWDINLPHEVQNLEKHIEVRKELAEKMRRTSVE
In short: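 Controls lacked protein and compound (0%) or compound only (100%). IC50 derived by nonlinear regression of normalized response versus log[inhibitor].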

| SMILES | dTm [1] [K] | dTm [2] [K] | dTm [3] [K] | dTm [4] [K] | dTm [6] [K] | IC50 (LRRK2^RCKW) [nM] | normalized response (LRRK2 activity) (LRRK2^RCKW; log[inhibitor(mol)] -5.12494) | normalized response (LRRK2 activity) (LRRK2^RCKW; log[inhibitor(mol)] -5.60206) | normalized response (LRRK2 activity) (LRRK2^RCKW; log[inhibitor(mol)] -6.30103) | normalized response (LRRK2 activity) (LRRK2^RCKW; log[inhibitor(mol)] -6.90309) | normalized response (LRRK2 activity) (LRRK2^RCKW; log[inhibitor(mol)] -7.30103) | normalized response (LRRK2 activity) (LRRK2^RCKW; log[inhibitor(mol)] -7.60206) | normalized response (LRRK2 activity) (LRRK2^RCKW; log[inhibitor(mol)] -8.09691) | normalized response (LRRK2 activity) (LRRK2^RCKW; log[inhibitor(mol)] -8.61979) | normalized response (LRRK2 activity) (LRRK2^RCKW; log[inhibitor(mol)] -9.09691) | normalized response (LRRK2 activity) (LRRK2^RCKW; log[inhibitor(mol)] -9.39794) | normalized response (LRRK2 activity) (LRRK2^RCKW; log[inhibitor(mol)] -4.82391) | dTm [5] [K] |
| --- | --- | --- | --- | --- | --- | --- | --- | --- | --- | --- | --- | --- | --- | --- | --- | --- | --- | --- |
| C[C@@H]1CN(c2cc(-c3n[nH]c4ccc(OC5(C)CC5)cc34)ncn2)C[C@H](C)O1 [MLi2] | 0.19 | 1.29 | -1.07 | -0.10 | 0.28 | – | – | – | – | – | – | – | – | – | – | – | – | -0.93 |
| Cn1cc(-c2c[nH]c3ncnc(N4CCOCC4)c23)cc1C#N [PFE-360] | 0.08 | 8.34 | 2.70 | 4.09 | -0.08 | – | – | – | – | – | – | – | – | – | – | – | – | -1.84 |
| Cc1ccc(C(=O)Nc2ccc(CN3CCN(C)CC3)c(C(F)(F)F)c2)cc1C#Cc1cnc2cccnn12 [Ponatinib, reference compound] | – | – | – | – | 1.53 | – | – | – | 56.5539% and 57.6737% | 39.5492% and 29.1129% | 59.9414% and 56.1669% | 77.794% and 52.662% | 99.8669% and 100.13% | 102.911% | 103.335% and 101.393% | 103.789% and 105.568% | – | -1.37 |
| CNC(=O)c1cc(Oc2ccc(NC(=O)Nc3cc(C(C)(C)C)nn3-c3ccc4ncccc4c3)c(F)c2)ccn1 [Rebastinib, reference compound] | – | 0.20 | 0.56 | 4.23 | 10.52 | – | -10.5496% and -14.6792% | -7.259% and -5.877% | 2.212% and 3.3144% | 28.2838% and 28.5032% | 54.9753% and 51.2954% | 71.3236% and 68.1209% | 89.2569% and 91.5273% | 98.1961% and 113.387% | 109.62% and 109.044% | 108.15% and 116.184% | – | 0.18 |
| CN[C@@H]1C[C@H]2O[C@@](C)([C@@H]1OC)n1c3ccccc3c3c4c(c5c6ccccc6n2c5c31)C(=O)NC4 [Staurosporine] | 2.20 | 12.42 | – | – | – | – | – | – | – | – | – | – | – | – | – | – | – | 3.20 |

Further lines, with some results ahead:

| dTm [1] [K] | dTm [2] [K] | dTm [3] [K] | dTm [4] [K] | dTm [6] [K] | IC50 (LRRK2^RCKW) [nM] | normalized response (LRRK2 activity) (LRRK2^RCKW; log[inhibitor(mol)] -5.12494) | normalized response (LRRK2 activity) (LRRK2^RCKW; log[inhibitor(mol)] -5.60206) | normalized response (LRRK2 activity) (LRRK2^RCKW; log[inhibitor(mol)] -6.30103) | normalized response (LRRK2 activity) (LRRK2^RCKW; log[inhibitor(mol)] -6.90309) | normalized response (LRRK2 activity) (LRRK2^RCKW; log[inhibitor(mol)] -7.30103) | normalized response (LRRK2 activity) (LRRK2^RCKW; log[inhibitor(mol)] -7.60206) | normalized response (LRRK2 activity) (LRRK2^RCKW; log[inhibitor(mol)] -8.09691) | normalized response (LRRK2 activity) (LRRK2^RCKW; log[inhibitor(mol)] -8.61979) | normalized response (LRRK2 activity) (LRRK2^RCKW; log[inhibitor(mol)] -9.09691) | normalized response (LRRK2 activity) (LRRK2^RCKW; log[inhibitor(mol)] -9.39794) | normalized response (LRRK2 activity) (LRRK2^RCKW; log[inhibitor(mol)] -4.82391) | SMILES | dTm [5] [K] |
| --- | --- | --- | --- | --- | --- | --- | --- | --- | --- | --- | --- | --- | --- | --- | --- | --- | --- | --- |
| 1.39 | 3.06 | 1.49 | 0.31 | 1.15 | 756 ± 20 | 7.718% and 4.844% | 24.5327% and 23.4304% | 59.5875% and 59.3462% | 87.2332% and 86.1364% | 105.83% and 97.719% | 93.8691% and 88.2314% | 93.7155% and 94.1323% | 97.5599% and 105.43% | 94.6588% and 101.816% | 98.0974% and 115.57% | – | Cc1ccc(C(=O)Nc2ccc(CN3CCN(C)CC3)c(C(F)(F)F)c2)cc1C#Cc1c[nH]c2ncnc(N3CCOCC3)c12 [Compound 1] | -1.51 |
| -0.45 | 3.27 | 4.79 | 0.12 | 0.49 | 185 ± 10 | -9.6118% and -10.6428% | -5.033% and -3.426% | 19.2953% and 18.2204% | 61.3205% and 61.6605% | 88.0559% and 79.7364% | 100.582% and 98.3497% | 94.604% and 97.0225% | 106.516% and 96.1066% | 107.272% and 96.9347% | 103.198% and 102.243% | -3.585% and -13.2094% | O=C(Nc1ccc(F)cc1)C1(C(=O)Nc2cccc(-c3c[nH]c4ncnc(N5CCOCC5)c34)c2)CC1 [Compound 2] | -0.78 |
| -0.00745 | 1.95 | 4.45 | -0.78 | 1.27 | 167 ± 4 | – | – | 8.354% and 15.3302% | 58.3207% and 57.3774% | 76.6433% and 88.9388% | 88.7743% and 91.0393% | 93.6662% and 93.1068% | 96.9841% and 102.616% | 103.96% and 100.631% | 95.5418% and 116.272% | 9.714% and 10.3287% | O=C(Nc1cccc(-c2c[nH]c3ncnc(N4CCOCC4)c23)c1)c1cccn(-c2ccc(F)cc2)c1=O [Compound 4] | -0.81 |
| 0.73 | 0.52 | 4.35 | 0.99 | 0.20 | 2150 ± 76 | 21.5574% and 22.3836% | 47.7852% and 45.6806% | 71.6605% and 77.9071% | 94.0943% and 97.1643% | 97.7557% and 95.1358% | 95.6902% and 98.0188% | 96.4251% and 96.973% | 102.476% and 68.784% | 101.485% and 101.404% | 101.487% and 73.6695% | 17.1176% and 19.6941% | Cc1cc(NC(=O)C2(C(=O)Nc3ccc(F)cc3)CC2)cc(-c2c[nH]c3ncnc(N4CCOCC4)c23)c1 [Compound 6] | -0.90 |
| -0.0645 | 4.61 | 0.65 | 1.08 | -0.11 | – | – | – | – | – | – | – | – | – | – | – | – | CCNc1nc(Nc2cc(F)c(C(=O)N3CCOCC3)cc2OC)ncc1C(F)(F)F [GNE-7915] | -0.72 |
